# Results from patent US5688760A, “Polypeptides having bone resorption inhibitory activity comprising PTHrP-derived sequences” (Genentech, Inc., priority 1990, dated 1997).
# Non-standard residues stand in square brackets, D forms with d. No end group written: not given here. 2Nal = N[C@@H](Cc1ccc2ccccc2c1)C(=O)O; Aib = CC(C)(N)C(=O)O
# What was measured:
# isolated osteoclasts = assay: Osteoclast isolation and assay of bone resorption (resorption pits per osteoclast on bovine cortical bone slices); assay type: cell-based, neonatal female Wistar rats; set-up: key to Activity (bone resorption inhibitory activity), Table 3 Effect of Amino Acid Substitutions: bone resorption inhibitory activity is designated by a "+"; inactivity by "-"; conditions: for Activity (bone resorption inhibitory activity), Table 3 Effect of Amino Acid Substitutions: amino acid derivatives of PTHrP (107-111)
# Method: For example, osteoclasts may be settled on sections of bone and incubated in the presence of, and in the absence of test compounds. Osteoclasts can be determined histochemically and can then be removed following incubation with bone sections by, for example, ultrasonification and the bone surface examined by microscopy to measure resorption pits produced per isolated osteoclasts. The number of resorption pits may be counted and their areas quantitated, for example by digitized morphometry. The variants or derivatives with inhibitory activity on bone resorption will, of course, inhibit the activity of osteoclasts in resorption of bone, which can be readily ascertained by analysis of bone sections. Likewise, variants or derivatives which have no effect in inhibiting bone resorption or which stimulate bone resorption will be evidenced by the formation of resorption pits on bone-sections.
# Osteoclasts were isolated from neonatal female Wistar rats by curetting the long bones into culture medium (HEPES-buffered Medium 199 [Trademark Flow Laboratories]). The resulting cell suspension was allowed to settle onto 100 μm thick slices of devitalized bovine cortical bone for 20 minutes before rinsing. After this brief settling period, the majority of contaminating cells are removed in the rinsing step, resulting in a functionally pure population of osteoclasts. The bone slices were then incubated in tissue culture medium (Eagle's Minimum Essential Medium [Flow Laboratories] supplemented, with 100 iU/ml benzylpenicillin 100 μg/ml streptomycin and 10% heat-inactivated fetal bovine serum) at 37° C. in 95% air, 5% CO2, pH 7.3 in the presence or absence of test agents. After 24 hours, the cells were fixed, reacted cytochemically for tartrate-resistant acid phosphatase (TRACP) and the number of multinucleated cells with strong reactions for TRACP (i.e. osteoclasts) counted. The cells were then stripped by ultrasonication in 0.25M NH4 OH prior to processing for scanning electronic microscopy. The entire surface of each bone slice was scanned and the number of resorption pits counted. In selected experiments the depth of the pits are assessed. There was a minimum of 6 replicates for each concentration point for each peptide. Each experiment was repeated at least 3 times. Statistical significance was determined by using Student's t test to compare each treatment with control. Bone resorption can be expressed as pit No./OC/bone slice, total excavated plan area/OC/bone slice, or total excavated volume of bone/OC/bone slice. Such assays are routine and readily amenable to the screening of large numbers of compounds for bone resorption inhibitory activity.
# [1] = In vivo serum calcium levels after intravenous injection in rats; conditions: 100 nanograms 100 grams body weight, saline control about 2.58
# Method: Mammalian serum calcium levels are tightly controlled by homeostatic mechanisms and show little variation. A model peptide, PTHrP 107-139 was injected intraveneously into rats (n=10) in an amount of 100 nanograms 100 grams body weight whereafter serum calcium levels were measured at 30 and 60 minutes by atomic absorption spectrascopy according to standard methods. Control groups of animals were injected with a positive control, calcitonin, which causes a decrease in serum calcium levels, as well as a negative control in the form of saline. Two groups of 10 rats ware used in these controls.
# [2] = tested on: Cyclic AMP in osteoclasts; assay: Cyclic AMP assay in isolated osteoclasts; assay type: cell-based, rat; conditions: osteoclasts pretreated with isobutylmethylxanthine 1 mM, peptide for 10 minutes
# Method: Recombinant hPTHrP(1-141) and recombinant hPTHrP(1-108) were prepared and purified as previously described (Suva et al., Supra, incorporated herein by reference). hPTHrP(107-139), […]COOH (SEQ ID NO:2), and other peptides were synthesized as carboxy-terminal amides, using an Applied Biosystems Peptide Synthesizer Model 430. Following HF cleavage, peptides were extracted from the resin with 60% (v/v) acetonitrile and 0.1% (v/v) trifluoroacetic acid and lyophilized. The crude peptides were purified by […] (2.5×90 cm column, C18, 20-30 μm. 300 Å resin, Vydac, California) with an acetonitrile gradient in the presence of 0.1% trifluoroacetic acid. The composition of the synthetic peptides was verified by quantitative amino acid analysis using a Beckman 6300 amino acid analyser. Cyclic AMP Assay: Osteoclasts were isolated as described above into 12-well tissue culture plates (Linbro). The cultures were pretreated with isobutylmethylxanthine (1 mM) for 20 minutes prior to administration of test peptides for 10 minutes. Cyclic AMP was extracted with 95% (v/v) ethanol/1 mM HCl and measured by radioimmunoassay. Four to six replicate wells were used in each treatment group.
compound,measurement,setting,value
"CC1CNCCN1S(=O)(=O)c1cccc2cnccc12 (stereo not shown) [H7, 1-(5-isoquinolinesulfonyl)-2 methyl piperazine, reference compound]",effect of PTHrP(107-139) on osteoclasts in the presence of protein kinase C inhibitor,isolated osteoclasts,blocked
T R C A W P G T C (TRCAWPGTC),"Activity (bone resorption inhibitory activity), Table 3 Effect of Amino Acid Substitutions",isolated osteoclasts,+
T R S npA (TRS[2Nal]; not fully specified (C-terminus); printed as T R S npA) [npA is 3(2-napthyl)alanine],"Activity (bone resorption inhibitory activity), Table 3 Effect of Amino Acid Substitutions",isolated osteoclasts,+
T R SmeA W (TRS[Aib]W; not fully specified (C-terminus); printed as T R SmeA W) [me is α-methyl],"Activity (bone resorption inhibitory activity), Table 3 Effect of Amino Acid Substitutions",isolated osteoclasts,+
Thr Arg Ser Ala Trp Leu Asp Ser Gly Val Thr Gly Ser Gly Leu Glu Gly Asp His Leu Ser Asp Thr Ser Thr Thr Ser Leu Glu Leu Asp Ser Arg-COOH (TRSAWLDSGVTGSGLEGDHLSDTSTTSLELDSR-OH) [PTHrP(107-139)],"inhibition of resorption (pit number/osteoclast number), FIG. 2",isolated osteoclasts; peptides at 1 nM,substantial inhibition
same,serum calcium level at 30 minutes after injection,[1],2.35 millimolar
same,serum calcium level at 60 minutes after injection,[1],about 2.55 millimolar
same,cyclic AMP response,[2],no elevation
calcitonin [reference compound],serum calcium level at 30 minutes after injection,[1],about 2.35 millimolar
calmon calcitonin [reference compound],cyclic AMP response,[2],2.5 fold
